Where two headings read alike, the source gives them in different places.
Legend:
[1] = system: Colo320 human colon adenocarcinoma cell line (doxorubicin-resistant); assay: MTT assay, cytotoxicity at pH 6 and 7; format: cell-based
Procedure: (§1) All cell culture reagents were obtained from Sigma-Aldrich (Merck KGaA, Darmstadt, Germany) and plasticware from Sarstedt (Nümbrecht, Germany). Human colonic adenocarcinoma cell lines Colo205 (catalog number: ATCC-CCL-222) and its doxorubicin-resistant counterpart Colo320 (catalog number: ATCC-CCL-220.1) were purchased from LGC Promochem (Teddington, UK). The cells were cultured in RPMI 1640 medium supplemented with 10% heat-inactivated fetal bovine serum, 2 mM L-glutamine, 1 mM sodium pyruvate, and 100 mM HEPES buffer, adjusting the pH to 6.0 or 7.0. The cells were incubated at 37 °C in a 5% CO2–95% air atmosphere. The semiadherent human colon cancer cells were detached with Trypsin-Versene solution for 5 min at 37 °C.
(§2) The solutions were freshly prepared prior to measurements (see Section 2.1). […] Firstly, these samples were diluted in complete culture medium; then, two-fold serial dilutions of the compounds were prepared in 100 μL of RPMI 1640, horizontally. The semiadherent colonic adenocarcinoma cells were treated with Trypsin-Versene solution. They were adjusted to a density of 1 × 10^4 cells in 100 μL of RPMI 1640 medium and were added to each well, with the exception of the medium control wells. The final volume of the wells containing compounds and cells was 200 μL. Samples were triplicated. The pH of the medium was adjusted to 6.0 or 7.0.
(§3) The culture plates were incubated at 37 °C for 72 h; at the end of the incubation period, 20 μL of MTT solution (from a stock solution of 5 mg/mL) was added to each well. After incubation at 37 °C for 4 h, 100 μL of SDS solution (10% in 0.01 M HCI) was added to each well, and the plates were further incubated at 37 °C overnight. Cell growth was determined by measuring the optical density (OD) at 540/630 nm with a Multiscan EX ELISA reader (Thermo Labsystems, Cheshire, WA, USA). […] Curves were fitted using GraphPad Prism software (2022, version 9.4.1, Graphpad Software (LLC) d.b.a Dotmatics, San Diego, CA, USA) using the sigmoidal dose–response model (comparing variable and fixed slopes).
(§4) The pH-dependent solution speciation of the selected mixed-ligand complexes is an important feature in the hypothesized mechanism of action, and the modeling of acidosis is necessary for the in vitro anticancer assays. In order to find out the cytotoxicity difference based on the pH of the medium, cytotoxic activity was determined at pH 6 and 7 by MTT assay in two human colon adenocarcinoma cell lines (doxorubicin-sensitive Colo205 and doxorubicin-resistant Colo320). […] The mixed-ligand complexes were prepared prior to the measurements, as was already described in Section 2.1. With this method, the effect of the different counter ions could be avoided, and a more adequate comparison of the mixed-ligand complexes could be conducted.

[2] = system: Colo205 human colon adenocarcinoma cell line (doxorubicin-sensitive); assay: MTT assay, cytotoxicity at pH 6 and 7; format: cell-based
Procedure: as §1, §2, §3, §4

[3] = system: E. coli 32313 (resistant); assay: Antibacterial assay, MIC in 96-well plates at different pH; format: cell-based
Text: (§5) The antibacterial effect was studied in two Gram-positive and in two Gram-negative strains. The Gram-positive S. aureus ATCC 25923 (ATCC, Manassas, VA, USA) is a methicillin-susceptible reference bacterial strain, while S. aureus 272123 is a clinical isolate and resistant to methicillin and ofloxacin (MRSA), which was given by Prof. Dr. Leonard Amaral (Institute of Hygiene and Tropical Medicine, Lisbon, Portugal). The Gram-negative strains were E. coli ATCC 25922 (ATCC, Manassas, VA, USA), which is sensitive to antibiotics, and E. coli 32313 (provided by the Institute of Clinical Microbiology, University of Szeged, Hungary), which is resistant to different antibiotics (trimethoprim/sulfamethoxazole, gentamicin, ciprofloxacin, and norfloxacin).
(§6) The minimum inhibitory concentrations (MICs) of the compounds were determined in 96-well plates based on the Clinical and Laboratory Standard Institute guidelines. The compounds were diluted in 100 μL of Mueller Hinton broth. Then, an overnight bacterial culture diluted 10,000 times in 100 μL of medium was added to each well, with the exception of the medium control wells. For each strain and each tested compound, four pH values were set (5, 6, 7, and 8). Each sample was triplicated.

[4] = system: S. aureus ATCC 25923 (methicillin-susceptible); assay: as above; format: cell-based
Text: as §5, §6

[5] = system: E. coli ATCC 25922 (sensitive); assay: as above; format: cell-based
Text: as §5, §6

S. aureus 272123 (MRSA) = assay: as above; format: cell-based
Text: as §5, §6

[6] = Formation constants of mixed-ligand half-sandwich complexes (UV-vis and 1H NMR); format: physicochemical; details: for Formation constant logK of mixed-ligand complex: aqua complex + monodentate ligand, I = 0.10 M (KCl), t = 25.0 °C, UV-vis and 1H NMR; for formation of the mixed-ligand complex: under the applied conditions, 1H NMR, limit of detection 5%
Procedure: NMR spectroscopic studies were carried out on a Bruker Avance III HD Ascend 500 Plus instrument. For the aqueous samples, ^1H NMR spectra were recorded with the WATERGATE water suppression pulse scheme using DSS internal standard. The highest peak of DSS was 0.00 ppm. The measurement was very similar to the UV-vis measurement since the complex–to–monodentate ligand ratio was also between 0–10 equivalents; the spectra were recorded after the given waiting time. […] This technique was useful in those cases where no spectral change was visible during the UV-vis titrations.
In both measurement methods, the formation constant (K) was obtained using the computer program PSEQUAD [38].
It is worthwhile to mention that the liberation of the bidentate ligand was not detected even at higher monodentate ligand excess (~10), which means that the disruption of the bond between the bidentate ligand and the metal center is not feasible under these conditions. The calculated formation constants are compared in Figure 5 and are collected in Table S2. The formation of the mixed-ligand complexes was not detected in three cases under the applied conditions, namely [Ru(p-cym)(en)(mim)]^2+, [Ru(p-cym)(phen)(mim)]^2+, and [Ru(p-cym)(en)(Py)]^2+. For these complexes, only a higher limit of the formation constant could be given, assuming that a maximum of 5% of the complex would form (limit of detection) under the conditions used for ^1H NMR spectroscopy. Based on Figure 5, the following trends are observed in the formation constants: (i) [RhCp*(en)(H2O)]^2+ and [RhCp*(phen)(H2O)]^2+ have a stronger monodentate ligand-binding ability than the Ru(p-cym) analogs; (ii) the formation constants of the [Ru(p-cym)(8HQH-1)(N)]^+ complexes are similar or somewhat higher than those of the RhCp* analogs; (iii) a stability trend for the monodentate ligand: mim > bim > Py (iv) and the bidentate ligand: 8HQH-1 > phen ≥ en can be seen.

[7] = Colo320, pH 6, 72 h incubation, read-out: IC50
[8] = Colo320, pH 7, 72 h incubation, read-out: IC50
[9] = Colo205, pH 6, 72 h incubation, read-out: IC50
[10] = Colo205, pH 7, 72 h incubation, read-out: IC50
[11] = E. coli resistant, pH 5, after one day, read-out: MIC
[12] = E. coli resistant, pH 6, after one day, read-out: MIC
[13] = E. coli resistant, pH 7, after one day, read-out: MIC
[14] = E. coli resistant, pH 8, after one day, read-out: MIC
[15] = S. aureus sensitive, pH 7, after one day, read-out: MIC
[16] = S. aureus sensitive, pH 8, after one day, read-out: MIC
[17] = E. coli sensitive, pH 5, after one day, read-out: MIC
[18] = E. coli sensitive, pH 6, after one day, read-out: MIC
[19] = E. coli sensitive, pH 7, after one day, read-out: MIC
[20] = E. coli sensitive, pH 8, after one day, read-out: MIC
[21] = pH 5, after one day, read-out: MIC
[22] = pH 6, after one day, read-out: MIC
[23] = pH 7, after one day, read-out: MIC
[24] = pH 8, after one day, read-out: MIC

c1ccncc1 [Py, pyridine, reference compound]
> 100 µM: IC50 ([1]; Homo sapiens, COLO 320, 72 h, pH 6) | IC50 ([1]; Homo sapiens, COLO 320, 72 h, pH 7) | IC50 ([2]; Homo sapiens, COLO 205, 72 h, pH 6) | IC50 ([2]; Homo sapiens, COLO 205, 72 h, pH 7) | MIC ([3]; Escherichia coli, 24 h, pH 5) | MIC ([3]; Escherichia coli, 24 h, pH 6) | MIC ([3]; Escherichia coli, 24 h, pH 7) | MIC ([3]; Escherichia coli, 24 h, pH 8) | MIC ([3]; Escherichia coli, read-out: MIC (no antibacterial effect)) | MIC ([4]; Staphylococcus aureus, ATCC25923, 24 h, pH 7) | MIC ([4]; Staphylococcus aureus, ATCC25923, 24 h, pH 8) | MIC ([4]; Staphylococcus aureus, ATCC25923, read-out: MIC (no antibacterial effect)) | MIC ([5]; Escherichia coli, ATCC25922, 24 h, pH 5) | MIC ([5]; Escherichia coli, ATCC25922, 24 h, pH 6) | MIC ([5]; Escherichia coli, ATCC25922, 24 h, pH 7) | MIC ([5]; Escherichia coli, ATCC25922, 24 h, pH 8) | MIC ([5]; Escherichia coli, ATCC25922, read-out: MIC (no antibacterial effect)) | MIC (S. aureus 272123 (MRSA); Staphylococcus aureus, 24 h, pH 5) | MIC (S. aureus 272123 (MRSA); Staphylococcus aureus, 24 h, pH 6) | MIC (S. aureus 272123 (MRSA); Staphylococcus aureus, 24 h, pH 7) | MIC (S. aureus 272123 (MRSA); Staphylococcus aureus, 24 h, pH 8) | MIC (S. aureus 272123 (MRSA); Staphylococcus aureus, read-out: MIC (no antibacterial effect))

Cc1c(C)c(C)[c-](C)c1C.[Rh+2][O]c1cccc2cccnc12.c1ccc2[nH]cnc2c1 [[RhCp*(8HQH-1)(H2O)]+ + bim]
3.4 ± 0.1: Formation constant logK of mixed-ligand complex [6]

Cc1c(C)c(C)[c-](C)c1C.[Cl][Rh+][O]c1cccc2cccnc12 [[RhCp*(8HQH−1)Cl]]
> 100 µM: MIC [3, 11] | MIC [3, 14] | MIC [5, 17] | MIC [5, 20]
50 µM: MIC (S. aureus 272123 (MRSA); [21])
>100 µM: MIC [3, 12] | MIC [3, 13] | MIC [5, 18] | MIC [5, 19]
12.5 µM: MIC [4, 15] | MIC [4, 16] | MIC (S. aureus 272123 (MRSA); [22]) | MIC (S. aureus 272123 (MRSA); [23]) | MIC (S. aureus 272123 (MRSA); [24])
3.3 ± 0.1 µM: IC50 [1, 8]
8.1 ± 0.5 µM: IC50 [2, 9]
6.1 ± 0.2 µM: IC50 [1, 7]
8.8 ± 0.4 µM: IC50 [2, 10]

Cc1c(C)c(C)[c-](C)c1C.NCCN.[Rh+3].c1ccc2[nH]cnc2c1 [[RhCp*(en)(H2O)]2+ + bim]
3.3 ± 0.2: Formation constant logK of mixed-ligand complex [6]

Cc1c(C)c(C)[c-](C)c1C.[Rh+3].c1ccc2[nH]cnc2c1.c1cnc2c(c1)ccc1cccnc12 [[RhCp*(phen)(bim)]^2+]
4.9 ± 0.2: Formation constant logK of mixed-ligand complex [6]

Cc1c(C)c(C)[c-](C)c1C.[Cl-].[Cl-].[Rh+3].c1cnc2c(c1)ccc1cccnc12 [[RhCp*(phen)Cl]Cl]
>100 µM: MIC [3, 12] | MIC [3, 13] | MIC [4, 15] | MIC [5, 18] | MIC [5, 19] | MIC (S. aureus 272123 (MRSA); [22]) | MIC (S. aureus 272123 (MRSA); [23])
> 100 µM: IC50 [1, 7] | IC50 [1, 8] | IC50 [2, 9] | IC50 [2, 10] | MIC [3, 11] | MIC [3, 14] | MIC ([3]; any of the bacterial strains, resistant E. coli, read-out: MIC (no antibacterial effect)) | MIC [4, 16] | MIC ([4]; any of the bacterial strains, S. aureus, read-out: MIC (no antibacterial effect)) | MIC [5, 17] | MIC [5, 20] | MIC ([5]; any of the bacterial strains, E. coli, read-out: MIC (no antibacterial effect)) | MIC (S. aureus 272123 (MRSA); any of the bacterial strains, read-out: MIC (no antibacterial effect)) | MIC (S. aureus 272123 (MRSA); [21]) | MIC (S. aureus 272123 (MRSA); [24])

Cc1ccc(C(C)C)cc1.NCCN.[Ru+2].c1ccncc1 [[Ru(p-cym)(en)(Py)]^2+]
< 1.5: Formation constant logK of mixed-ligand complex [6]
not detected: formation of the mixed-ligand complex [6]

Cc1ccc(C(C)C)cc1.Cn1ccnc1.NCCN.[Ru+2] [[Ru(p-cym)(en)(mim)]^2+]
not detected: formation of the mixed-ligand complex [6]

Cc1ccc(C(C)C)cc1.Cn1ccnc1.[Ru+2].c1cnc2c(c1)ccc1cccnc12 [[Ru(p-cym)(phen)(mim)]^2+]
not detected: formation of the mixed-ligand complex [6]

Cc1ccc(C(C)C)cc1.[Ru+][O]c1cccc2cccnc12.c1ccncc1 [[RuCym(8HQH-1)(H2O)]+ + Py]
1.6 ± 0.2: Formation constant logK of mixed-ligand complex [6]
